# Source: BindingDB's records for doi:10.1146/annurev.pa.30.040190.003221 (National Institute For Medical Research, 1990)
# Columns and labels:
# [1] = target: T1, Muscarinic acetylcholine receptor M1 (Rattus norvegicus, UniProt P08482)
# T1 sequence (P08482 whole entry): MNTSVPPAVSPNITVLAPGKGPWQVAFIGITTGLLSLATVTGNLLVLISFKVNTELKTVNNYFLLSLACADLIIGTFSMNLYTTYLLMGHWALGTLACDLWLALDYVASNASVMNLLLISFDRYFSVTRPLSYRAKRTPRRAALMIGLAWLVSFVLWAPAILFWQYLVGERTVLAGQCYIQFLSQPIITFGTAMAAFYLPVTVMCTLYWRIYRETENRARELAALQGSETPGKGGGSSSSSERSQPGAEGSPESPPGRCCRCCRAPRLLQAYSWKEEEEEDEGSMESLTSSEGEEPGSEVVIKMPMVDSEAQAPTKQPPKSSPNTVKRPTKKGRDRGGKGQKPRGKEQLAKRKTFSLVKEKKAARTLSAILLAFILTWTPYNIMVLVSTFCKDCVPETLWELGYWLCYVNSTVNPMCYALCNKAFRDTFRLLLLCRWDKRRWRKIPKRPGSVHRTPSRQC
# [2] = target: Muscarinic acetylcholine receptor M3 (Rattus norvegicus, UniProt P08483)
# [3] = target: T2, Muscarinic acetylcholine receptor M2 (Rattus norvegicus, UniProt P10980)
# T2 sequence (P10980 whole entry): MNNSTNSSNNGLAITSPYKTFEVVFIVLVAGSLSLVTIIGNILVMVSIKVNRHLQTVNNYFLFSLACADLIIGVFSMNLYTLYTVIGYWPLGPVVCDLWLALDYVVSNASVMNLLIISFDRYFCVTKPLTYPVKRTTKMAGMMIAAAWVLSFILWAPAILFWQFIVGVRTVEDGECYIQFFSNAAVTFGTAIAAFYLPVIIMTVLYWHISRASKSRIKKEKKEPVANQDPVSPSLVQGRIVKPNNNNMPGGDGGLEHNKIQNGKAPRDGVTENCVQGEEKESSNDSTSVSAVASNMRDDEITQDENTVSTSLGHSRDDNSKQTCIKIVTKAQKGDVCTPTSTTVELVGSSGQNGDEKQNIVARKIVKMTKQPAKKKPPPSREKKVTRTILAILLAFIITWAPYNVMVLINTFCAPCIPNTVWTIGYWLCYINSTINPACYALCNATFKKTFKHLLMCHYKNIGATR
# Sequence of Muscarinic acetylcholine receptor M3 (P08483 whole entry): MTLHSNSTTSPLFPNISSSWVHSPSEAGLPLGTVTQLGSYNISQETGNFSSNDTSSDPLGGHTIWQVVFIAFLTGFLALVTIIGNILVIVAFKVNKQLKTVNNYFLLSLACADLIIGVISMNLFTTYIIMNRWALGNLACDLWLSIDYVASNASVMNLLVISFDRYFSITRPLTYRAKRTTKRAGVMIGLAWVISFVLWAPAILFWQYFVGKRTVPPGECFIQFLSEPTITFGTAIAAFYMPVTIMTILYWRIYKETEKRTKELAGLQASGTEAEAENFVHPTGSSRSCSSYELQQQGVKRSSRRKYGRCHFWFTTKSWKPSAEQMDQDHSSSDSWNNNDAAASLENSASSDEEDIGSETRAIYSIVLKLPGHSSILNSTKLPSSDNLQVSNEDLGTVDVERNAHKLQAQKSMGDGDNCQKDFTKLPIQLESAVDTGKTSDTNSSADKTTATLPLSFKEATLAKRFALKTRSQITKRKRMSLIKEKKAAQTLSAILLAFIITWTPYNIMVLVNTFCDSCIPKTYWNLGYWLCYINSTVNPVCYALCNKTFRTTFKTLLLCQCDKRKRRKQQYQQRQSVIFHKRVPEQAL
SMILES,Ki [1] [nM],Ki [2] [nM],Ki [3] [nM]
"CCN(CC)CC1CCCCN1CC(=O)N1c2ccccc2C(=O)Nc2cccnc21 (centres undefined) [(AF-DX 116) 11-[2-(2-Diethylaminomethyl-piperidin-1-yl)-acetyl]-5,11-dihydro-benzo[e]pyrido[3,2-b][1,4]diazepin-6-one]",398,1260,
CC(=O)N[C@H]1CO[C@H](COS(=O)(=O)O)[C@@H](O[C@@H]2O[C@H](C(=O)O)[C@@H](O[C@H]3O[C@H](CO)[C@@H](O[C@@H]4O[C@@H](C(=O)O)[C@@H](O)[C@H](O)[C@H]4OS(=O)(=O)O)[C@H](OS(=O)(=O)O)[C@H]3NS(=O)(=O)O)[C@H](O)[C@H]2OS(=O)(=O)O)[C@@H]1O [CAS_9050-30-0],12.6,6.31,126
C[C@H]1OC(=O)C2C[C@H]3CCCC[C@@H]3[C@@H](/C=C/[C@@H]3CCC[C@H](C)N3C)C21 (some centres undefined) [HIMBACINE],100,126,7.94
COc1ccccc1CNCCCCCCNCCCCCCCCNCCCCCCNCc1ccccc1OC [METHOCTRAMINE],,316,
